Tests used:
[1] = Inhibition of P-gp (unknown origin) expressed in MES-SA/DX5 cells assessed as increase in reversal of resistance to paclitaxel-induced cytotoxicity by measuring reduction in paclitaxel EC50 at 50 nM incubated for 72 hrs in presence of paclitaxel by SRB assay (Rvb = 294.6 nM)
[2] = Inhibition of P-gp (unknown origin) expressed in MCF7 cells assessed as increase in reversal of resistance to paclitaxel-induced cytotoxicity by measuring reduction in paclitaxel EC50 at 50 nM incubated for 72 hrs in presence of paclitaxel by SRB assay (Rvb = 11.5 nM)
[3] = Inhibition of P-gp (unknown origin) expressed in MES-SA/DX5 cells assessed as cell growth inhibition after 3 days in presence of 200 nM paclitaxel by MTT assay

SMILES	EC50 [1]	EC50 [2]	EC50 [3]
COc1cc2c(cc1OC)CN(CCc1ccc(-n3nnc(-c4cc(OC)c(OC)cc4NC(=O)c4ccc5ccccc5n4)n3)cc1)CC2	110 nM	12 nM	
COc1cc2c(cc1OC)CN(CCc1ccc(-n3nnc(-c4cc(OC)c(OC)cc4NC(=O)c4cc(=O)c5c(OC)cccc5o4)n3)cc1)CC2	5.9 nM	7.4 nM	
COc1cc2c(cc1OC)CN(CCc1ccc(-n3nnc(-c4cc(OC)c(OC)cc4NC(=O)c4cnccn4)n3)cc1)CC2	98 nM	9.1 nM	
COc1cc2c(cc1OC)CN(CCc1ccc(-n3nnc(-c4cc(OC)c(OC)cc4NC(=O)c4cc(=O)c5cc(F)ccc5o4)n3)cc1)CC2	7.5 nM	8.1 nM	
COc1cc2c(cc1OC)CN(CCc1ccc(-n3nnc(-c4cc(OC)c(OC)cc4NC(=O)c4coc5ccccc5c4=O)n3)cc1)CC2	140 nM	9 nM	
COc1cc2c(cc1OC)CN(CCc1ccc(-n3nnc(-c4cc(OC)c(OC)cc4NC(=O)c4cccnc4)n3)cc1)CC2	98 nM	9.1 nM	
COc1cc2c(cc1OC)CN(CCc1ccc(-n3nnc(-c4cc(OC)c(OC)cc4NC(=O)c4cc(=O)c5ccccc5o4)n3)cc1)CC2 [Encequidar]	4.9 nM	7.9 nM	13 nM
COc1cc2c(cc1OC)CN(CCc1ccc(-n3nnc(-c4cc(OC)c(OC)cc4NC(=O)c4cc5ccccc5cn4)n3)cc1)CC2	84 nM	8.5 nM	
COc1cc2c(cc1OC)CN(CCc1ccc(NC(=O)c3cc(OC)c(OC)cc3NC(=O)c3cnc4ccccc4c3)cc1)CC2			16 nM
COc1cc2c(cc1OC)CN(CCc1ccc(-n3nnc(-c4cc(OC)c(OC)cc4NC(=O)c4ccsc4)n3)cc1)CC2	66 nM	6.4 nM	
COc1cc2c(cc1OC)CN(CCc1ccc(-n3nnc(-c4cc(OC)c(OC)cc4NC(=O)c4nccc5ccccc45)n3)cc1)CC2	162 nM	7.6 nM	
COc1cc2c(cc1OC)CN(CCc1ccc(-n3nnc(-c4cc(OC)c(OC)cc4NC(=O)c4cc(=O)c5cc(C)ccc5o4)n3)cc1)CC2	4 nM	6.5 nM	
COc1cc2c(cc1OC)CN(CCc1ccc(-n3nnc(-c4cc(OC)c(OC)cc4NC(=O)c4ccccc4)n3)cc1)CC2	87 nM	7.7 nM	
COc1cc2c(cc1OC)CN(CCc1ccc(-n3nnc(-c4cc(OC)c(OC)cc4NC(=O)c4ccoc4)n3)cc1)CC2	84 nM	10 nM	
COc1cc2c(cc1OC)CN(CCc1ccc(-n3nnc(-c4cc(OC)c(OC)cc4NC(=O)c4ccc5ccccc5c4)n3)cc1)CC2	113 nM	10 nM	
COc1cc2c(cc1OC)CN(CCc1ccc(-n3nnc(-c4cc(OC)c(OC)cc4NC(=O)c4ccc(F)c(F)c4)n3)cc1)CC2	80 nM	10 nM	
COc1cc2c(cc1OC)CN(CCc1ccc(-n3nnc(-c4cc(OC)c(OC)cc4NC(=O)c4cccc5cccnc45)n3)cc1)CC2	69 nM	5.4 nM	
COc1cc2c(cc1OC)CN(CCc1ccc(-n3nnc(-c4cc(OC)c(OC)cc4NC(=O)c4cncc5ccccc45)n3)cc1)CC2	89 nM	9.1 nM	
COc1cc2c(cc1OC)CN(CCc1ccc(-n3nnc(-c4cc(OC)c(OC)cc4NC(=O)c4cnc5ccccc5c4)n3)cc1)CC2	15 nM	7.9 nM	75 nM
